Where two headings read alike, the source gives them in different places.

The nature of the data set: in vitro. To be noted: human. Type of data set: in vitro ADME. A digest of the protocol:
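Permeability measured in both directions across 19-day Caco-2 layers with TEER above 600 […], incubated at 37° C without shaking; donor and receiver sampled at 10 and 90 min for LC/MS/MS. Derived values: Papp (cm/s), efflux ratio, recovery.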

Where [1] appears, read: Caco-2 monolayer, apical to basolateral, 90-minute incubation, read-out: Papp, A-B.
Setting [2] is: Caco-2 monolayer, basolateral to apical, 90-minute incubation, read-out: Papp, B-A.
The mark [3] stands for this setting: Caco-2 monolayer, ER>2 indicates potential efflux transporter substrate, read-out: ER (efflux ratio).

One may read the Papp A→B as the apparent permeability from the apical to the basolateral side of a cell layer. For orientation: Papp B→A means how fast a substance crosses the layer from the basolateral side. Turning to `CC(C)[C@H](N)C(=O)Nc1ncnn2c([C@]3(C#N)O[C@H](CO)[C@@H](OC(=O)[C@@H](N)C(C)C)[C@H]3O)ccc12` [Compound 129, (2R,3S,4R,5R)-5-{4-[(2S)-2-amino-3-methylbutanamido]pyrrolo[2,1-f][1,2,4]triazin-7-yl}-5-cyano-4-hydroxy-2-(hydroxymethyl)oxolan-3-yl (2S)-2-amino-3-methylbutanoate], for the setting “Caco-2”, the Papp A→B at 90 min was found to be 0.03 ×10⁻⁶ cm/s, the apparent permeability from basolateral to apical (Papp B→A) at 90 min is 0.02 ×10⁻⁶ cm/s and the efflux ratio at 90 min worked out at 0.7.

On to `N#C[C@@]1(c2ccc3c(NC(=O)[C@@H](N)Cc4ccc(F)cc4)ncnn23)O[C@H](CO)[C@@H](OC(=O)CC2CCCCC2)[C@H]1O` [Compound 137, (2R,3S,4R,5R)-5-(4-((S)-2-amino-3-(4-fluorophenyl)propanamido)pyrrolo[2,1-f][1,2,4]triazin-7-yl)-5-cyano-4-hydroxy-2-(hydroxymethyl)tetrahydrofuran-3-yl 2-cyclohexylacetate], for which, where the note is “Caco-2”, the apical-to-basolateral permeability (Papp A→B) at 90 min was found to be 0.6 ×10⁻⁶ cm/s, the basolateral-to-apical permeability (Papp B→A) at 90 min was determined as 2.7 ×10⁻⁶ cm/s and the efflux ratio at 90 min stood at 4.5.

In the case of `CC(C)[C@H](N)C(=O)Nc1ncnn2c([C@]3(C#N)O[C@H](CO)[C@@H](OC(=O)CC4CCCCC4)[C@H]3O)ccc12` [Compound 139, (2R,3S,4R,5R)-5-(4-((S)-2-amino-3-methylbutanamido)pyrrolo[2,1-f][1,2,4]triazin-7-yl)-5-cyano-4-hydroxy-2-(hydroxymethyl)tetrahydrofuran-3-yl 2-cyclohexylacetate], where the note is “Caco-2”, the Papp A→B at 90 min turned out to be 0.18 ×10⁻⁶ cm/s, the Papp B→A at 90 min is 6.1 ×10⁻⁶ cm/s and the efflux ratio at 90 min worked out at 34.

For `CCCCCOC(=O)Nc1ncnn2c([C@]3(C#N)O[C@H](CO)[C@@H](OC(=O)Cc4ccccc4)[C@H]3O)ccc12` [Compound 141, (2R,3S,4R,5R)-5-cyano-4-hydroxy-2-(hydroxymethyl)-5-(4-(((pentyloxy)carbonyl)amino)pyrrolo[2,1-f][1,2,4]triazin-7-yl)tetrahydrofuran-3-yl 2-phenylacetate], under setting [1], the apical-to-basolateral permeability (Papp A→B) at 90 min turned out to be 0.14 ×10⁻⁶ cm/s. Besides, under setting [2], the apparent permeability from basolateral to apical (Papp B→A) at 90 min was 0.04 ×10⁻⁶ cm/s. Moreover, the efflux ratio at 90 min under setting [3] is 0.33.

`N#C[C@@]1(c2ccc3c(NC(=O)c4ccccc4)ncnn23)O[C@H](CO)[C@@H](OC(=O)Cc2ccccc2)[C@H]1O` [Compound 143, (2R,3S,4R,5R)-5-(4-benzamidopyrrolo[2,1-f][1,2,4]triazin-7-yl)-5-cyano-4-hydroxy-2-(hydroxymethyl)tetrahydrofuran-3-yl 2-phenylacetate]: the apical-to-basolateral permeability (Papp A→B) at 90 min under setting [1] was 0.67 ×10⁻⁶ cm/s. Moreover, the Papp B→A at 90 min under setting [2] turned out to be 0.12 ×10⁻⁶ cm/s. Besides, under setting [3], the efflux ratio at 90 min turned out to be 0.18.

As to `CC(C)[C@H](N)C(=O)Nc1ncnn2c([C@]3(C#N)O[C@H](CO)[C@@H](OC(=O)Cc4ccccc4)[C@H]3O)ccc12` [Compound 144, (2R,3S,4R,5R)-5-(4-((S)-2-amino-3-methylbutanamido)pyrrolo[2,1-f][1,2,4]triazin-7-yl)-5-cyano-4-hydroxy-2-(hydroxymethyl)tetrahydrofuran-3-yl 2-phenylacetate], under setting [1], the apical-to-basolateral permeability (Papp A→B) at 90 min amounted to 0.03 ×10⁻⁶ cm/s. Besides, under setting [2], the basolateral-to-apical permeability (Papp B→A) at 90 min was 1.8 ×10⁻⁶ cm/s. Further, under setting [3], the efflux ratio at 90 min is 53.

Take `CNc1nc(N)nc2c1ncn2[C@@H]1O[C@H](COC(C)=O)[C@@H](O)[C@@]1(C)F` [Compound 178, ((2R,3R,4R,5R)-5-(2-amino-6-(methylamino)-9H-purin-9-yl)-4-fluoro-3-hydroxy-4-methyltetrahydrofuran-2-yl)methyl acetate]: under “Caco-2”, the apical-to-basolateral permeability (Papp A→B) at 90 min came to 6.7 ×10⁻⁶ cm/s, the apparent permeability from basolateral to apical (Papp B→A) at 90 min came to 4.4 ×10⁻⁶ cm/s and the efflux ratio at 90 min came out at 0.7.

In the case of `CCC(=O)OC[C@H]1O[C@@H](n2cnc3c(NC)nc(N)nc32)[C@](C)(F)[C@@H]1O` [Compound 180, ((2R,3R,4R,5R)-5-(2-amino-6-(methylamino)-9H-purin-9-yl)-4-fluoro-3-hydroxy-4-methyltetrahydrofuran-2-yl)methyl propionate], under setting [1], the apical-to-basolateral permeability (Papp A→B) at 90 min was determined as 4.6 ×10⁻⁶ cm/s. Further, the Papp B→A at 90 min under setting [2] was determined as 7.6 ×10⁻⁶ cm/s. Besides, the efflux ratio at 90 min under setting [3] was found to be 1.6.

Regarding `CNc1nc(N)nc2c1ncn2[C@@H]1O[C@H](COC(C)=O)[C@@H](OC(=O)CC(C)C)[C@@]1(C)F` [Compound 186, (2R,3R,4R,5R)-2-(acetoxymethyl)-5-(2-amino-6-(methylamino)-9H-purin-9-yl)-4-fluoro-4-methyltetrahydrofuran-3-yl 3-methylbutanoate], for the setting “Caco-2”, the Papp A→B at 90 min was 19 ×10⁻⁶ cm/s, the basolateral-to-apical permeability (Papp B→A) at 90 min amounted to 7.2 ×10⁻⁶ cm/s and the efflux ratio at 90 min turned out to be 0.38.

For the molecule `CNc1nc(N)nc2c1ncn2[C@@H]1O[C@H](COC(=O)C(C)C)[C@@H](OC(=O)CC(C)C)[C@@]1(C)F` [Compound 187, (2R,3R,4R,5R)-5-(2-amino-6-(methylamino)-9H-purin-9-yl)-4-fluoro-2-((isobutyryloxy)methyl)-4-methyltetrahydrofuran-3-yl 3-methylbutanoate], where the note is “Caco-2”, the Papp A→B at 90 min came out at 11 ×10⁻⁶ cm/s, the Papp B→A at 90 min was determined as 2.4 ×10⁻⁶ cm/s and the efflux ratio at 90 min came to 0.22.

For the molecule `CNc1nc(N)nc2c1ncn2[C@@H]1O[C@H](COC(C)=O)[C@@H](OC(=O)CC2CCCCC2)[C@@]1(C)F` [Compound 194, (2R,3R,4R,5R)-2-(acetoxymethyl)-5-(2-amino-6-(methylamino)-9H-purin-9-yl)-4-fluoro-4-methyltetrahydrofuran-3-yl 2-cyclohexylacetate], for the setting “Caco-2”, the Papp A→B at 90 min came out at 12 ×10⁻⁶ cm/s, the Papp B→A at 90 min was found to be 2.1 ×10⁻⁶ cm/s and the efflux ratio at 90 min was 0.18.

With `CNc1nc(N)nc2c1ncn2[C@@H]1O[C@H](COC(=O)C(C)C)[C@@H](OC(=O)CC2CCCCC2)[C@@]1(C)F` [Compound 195, ((2R,3R,4R,5R)-5-(2-amino-6-(methylamino)-9H-purin-9-yl)-3-(2-cyclohexylacetoxy)-4-fluoro-4-methyltetrahydrofuran-2-yl)methyl isobutyrate], under “Caco-2”, the Papp A→B at 90 min was found to be 6.3 ×10⁻⁶ cm/s, the apparent permeability from basolateral to apical (Papp B→A) at 90 min is 1.1 ×10⁻⁶ cm/s and the efflux ratio at 90 min worked out at 0.18.

For `CNc1nc(N)nc2c1ncn2[C@@H]1O[C@H](COC(C)=O)[C@@H](OC(=O)Cc2ccccc2)[C@@]1(C)F` [Compound 210, (2R,3R,4R,5R)-2-(acetoxymethyl)-5-(2-amino-6-(methylamino)-9H-purin-9-yl)-4-fluoro-4-methyltetrahydrofuran-3-yl 2-phenylacetate], the Papp A→B at 90 min under setting [1] was found to be 15 ×10⁻⁶ cm/s. Also, the Papp B→A at 90 min under setting [2] is 5.8 ×10⁻⁶ cm/s. Besides, under setting [3], the efflux ratio at 90 min was 0.38.

On to `CNc1nc(N)nc2c1ncn2[C@@H]1O[C@H](COC(=O)C(C)C)[C@@H](OC(=O)Cc2ccccc2)[C@@]1(C)F` [Compound 211, ((2R,3R,4R,5R)-5-(2-amino-6-(methylamino)-9H-purin-9-yl)-4-fluoro-4-methyl-3-(2-phenylacetoxy)tetrahydrofuran-2-yl)methyl isobutyrate], for which the Papp A→B at 90 min under setting [1] was found to be 6.2 ×10⁻⁶ cm/s. For the same molecule, the Papp B→A at 90 min under setting [2] is 4.8 ×10⁻⁶ cm/s. Under setting [3], the efflux ratio at 90 min came to 0.8.

As to `CNc1nc(N)nc2c1ncn2[C@@H]1O[C@H](COC(=O)CC2CCCCC2)[C@@H](OC(C)=O)[C@@]1(C)F` [Compound 215, ((2R,3R,4R,5R)-3-acetoxy-5-(2-amino-6-(methylamino)-9H-purin-9-yl)-4-fluoro-4-methyltetrahydrofuran-2-yl)methyl 2-cyclohexylacetate], under “Caco-2”, the Papp A→B at 90 min amounted to 9.3 ×10⁻⁶ cm/s, the Papp B→A at 90 min was 1.6 ×10⁻⁶ cm/s and the efflux ratio at 90 min was determined as 0.18.

With `CNc1nc(N)nc2c1ncn2[C@@H]1O[C@H](COC(=O)Cc2ccccc2)[C@@H](OC(C)=O)[C@@]1(C)F` [Compound 217, ((2R,3R,4R,5R)-3-acetoxy-5-(2-amino-6-(methylamino)-9H-purin-9-yl)-4-fluoro-4-methyltetrahydrofuran-2-yl)methyl 2-phenylacetate], the Papp A→B at 90 min under setting [1] came out at 14 ×10⁻⁶ cm/s. For the same molecule, the Papp B→A at 90 min under setting [2] turned out to be 6.1 ×10⁻⁶ cm/s. The efflux ratio at 90 min under setting [3] is 0.45.

As for `CCC(=O)OC[C@H]1O[C@@H](n2cnc3c(NC)nc(N)nc32)[C@](C)(F)[C@@H]1OC(C)=O` [Compound 220, ((2R,3R,4R,5R)-3-acetoxy-5-(2-amino-6-(methylamino)-9H-purin-9-yl)-4-fluoro-4-methyltetrahydrofuran-2-yl)methyl propionate], under “Caco-2”, the Papp A→B at 90 min is 20 ×10⁻⁶ cm/s, the Papp B→A at 90 min was determined as 13 ×10⁻⁶ cm/s and the efflux ratio at 90 min turned out to be 0.64.

With `CNc1nc(N)nc2c1ncn2[C@@H]1O[C@H](COC(=O)CC2CCCCC2)[C@@H](OC(=O)C(C)C)[C@@]1(C)F` [Compound 223, (2R,3R,4R,5R)-5-[2-amino-6-(methylamino)purin-9-yl]-2-{[(2-cyclohexylacetyl)oxy]methyl}-4-fluoro-4-methyloxolan-3-yl 2-methylpropanoate], where the note is “Caco-2”, the Papp A→B at 90 min turned out to be 20 ×10⁻⁶ cm/s, the Papp B→A at 90 min came out at 6.9 ×10⁻⁶ cm/s and the efflux ratio at 90 min was 0.34.

On to `CNc1nc(N)nc2c1ncn2[C@@H]1O[C@H](COC(=O)C(C)C)[C@@H](OC(=O)C(C)C)[C@@]1(C)F` [Compound 227, (2R,3R,4R,5R)-5-(2-amino-6-(methylamino)-9H-purin-9-yl)-4-fluoro-2-((isobutyryloxy)methyl)-4-methyltetrahydrofuran-3-yl isobutyrate], for which, under “Caco-2”, the Papp A→B at 90 min came to 8.5 ×10⁻⁶ cm/s, the Papp B→A at 90 min is 3.2 ×10⁻⁶ cm/s and the efflux ratio at 90 min is 0.4.

With `CCC(=O)O[C@@H]1[C@@H](COC(=O)C(C)C)O[C@@H](n2cnc3c(NC)nc(N)nc32)[C@]1(C)F` [Compound 235, ((2R,3R,4R,5R)-5-(2-amino-6-(methylamino)-9H-purin-9-yl)-4-fluoro-4-methyl-3-(propionyloxy)tetrahydrofuran-2-yl)methyl isobutyrate], for the setting “Caco-2”, the Papp A→B at 90 min worked out at 11 ×10⁻⁶ cm/s, the basolateral-to-apical permeability (Papp B→A) at 90 min is 4.5 ×10⁻⁶ cm/s and the efflux ratio at 90 min was found to be 0.4.

The record behind these values is patent publication US12102648B2, “Orally-bioavailable nucleoside analogs” (priority 2021, dated 2024).
